Among the data in US20260356851A1, “TRICYCLIC COMPOUNDS AND USES THEREOF” (HUTCHMED LIMITED, priority 2023, published 2026) are IC50 values, retold here.

Common to all, as to type: cell-based
Assay [1] addresses T1, pERK1/2 (Thr202/Tyr204), PANC-1 (KRAS G121D) (Homo sapiens, UniProt P01116, G12D).
T1 construct: pERK1/2 HTRF read-out
In words: Assay of intracellular pERK1/2 (Thr202/Tyr204) phosphorylation in PANC-1 cells (KRAS G12D). The conditions noted are these: pERK1/2, 2 days, read-out: PANC-1 (KRAS G12D) IC50. The method, boiled down: (§1)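 HTRF detection of Thr202/Tyr204-phosphorylated ERK1/2 (665/615 nm ratio) in lysates from cells treated 2 days with serially 3-fold diluted compound.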

For assay [2], the target named is T2, pERK1/2 (Thr202/Tyr204), NCI-1H441 (KRAS G12V) (Homo sapiens, UniProt P01116, G12V).
T2 construct: pERK1/2 HTRF read-out
In words: Assay of intracellular pERK1/2 (Thr202/Tyr204) phosphorylation in NCI-H441 cells (KRAS G12V). The following applies: pERK1/2, 2 days, read-out: NCI-H441 (KRAS G12V) IC50. The method, boiled down: as §1

Assay [3] deals with T3, pERK1/2 (Thr202/Tyr204), NCI-1H358 (KRAS G12C) (Homo sapiens, UniProt P01116, G12C).
T3 construct: pERK1/2 HTRF read-out
In words: Assay of intracellular pERK1/2 (Thr202/Tyr204) phosphorylation in NCI-H358 cells (KRAS G12C). The following applies: pERK1/2, 2 days, read-out: NCI-H358 (KRAS G12C) IC50. The method, boiled down: as §1

T2 sequence (P01116 1-188 isoform P01116-2 G12V): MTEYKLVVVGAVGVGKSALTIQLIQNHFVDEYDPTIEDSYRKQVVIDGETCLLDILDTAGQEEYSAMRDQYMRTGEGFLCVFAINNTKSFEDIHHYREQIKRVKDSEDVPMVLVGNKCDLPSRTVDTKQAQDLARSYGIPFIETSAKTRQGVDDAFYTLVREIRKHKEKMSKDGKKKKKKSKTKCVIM
T1 sequence (P01116 1-188 isoform P01116-2 G12D): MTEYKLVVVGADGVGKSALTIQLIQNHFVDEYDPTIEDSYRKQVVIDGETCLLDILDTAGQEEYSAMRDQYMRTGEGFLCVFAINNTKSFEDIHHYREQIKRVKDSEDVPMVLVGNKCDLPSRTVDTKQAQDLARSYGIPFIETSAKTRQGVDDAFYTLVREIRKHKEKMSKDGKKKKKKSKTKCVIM
T3 sequence (P01116 1-188 isoform P01116-2 G12C): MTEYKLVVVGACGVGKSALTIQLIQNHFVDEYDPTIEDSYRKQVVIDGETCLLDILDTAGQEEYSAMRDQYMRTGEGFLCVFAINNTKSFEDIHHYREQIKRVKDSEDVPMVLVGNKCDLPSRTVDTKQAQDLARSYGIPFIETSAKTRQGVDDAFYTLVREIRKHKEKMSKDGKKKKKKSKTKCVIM

On to `CC(c1cccnc1N)N1c2nc(OC[C@@]34CCCN3C[C@H](F)C4)nc3c(F)c(-c4cc(O)cc(Cl)c4C#N)nc(c23)OC[C@@H]1C` (stereo partly drawn) [Compound 322], for which the IC50 in assay [1] is > 100 nM; in assay [2] it was 97 nM; in assay [3] it was 21 nM.
The like results for `CC(c1cccnc1N)N1c2nc(OC[C@@]34CCCN3C[C@H](F)C4)nc3c(F)c(-c4c(C(F)(F)F)cnc5[nH]ccc45)nc(c23)OC[C@@H]1C` (stereo partly drawn) [Compound 323] were, in that order, 10 nM, 2 nM and 0.6 nM.
The like results for `Cc1c(-c2nc3c4c(nc(OC[C@@]56CCCN5C[C@H](F)C6)nc4c2F)N(C(C)c2cccnc2N)[C@@H](C)CO3)ccc2cn[nH]c12` (stereo partly drawn) [Compound 324] were, in that order, > 100 nM, > 100 nM and 28 nM.
The like results for `CC(c1cccnc1N)N1c2nc(OC[C@@]34CCCN3C[C@H](F)C4)nc3c(F)c(-c4cc5[nH]ncc5cc4C(F)(F)F)nc(c23)OC[C@@H]1C` (stereo partly drawn) [Compound 325] were, in that order, > 100 nM, 44 nM and 28 nM.
With `Cc1cc(N)nc(-c2nc3c4c(nc(OC[C@@]56CCCN5C[C@H](F)C6)nc4c2F)N(C(C)c2cccnc2N)[C@@H](C)CO3)c1C(F)(F)F` (stereo partly drawn) [Compound 326, (*)6-((9S)-10-(1-(2-aminopyridin-3-yl)ethyl)-4-fluoro-2-(((2R,7aS)-2-fluorotetrahydro-1H-pyrrolizin-7a(5H)-yl)methoxy)-9-methyl-9,10-dihydro-8H-7-oxa-1,3,6,10-tetraazacyclohepta[de]naphthalen-5-yl)-4-methyl-5-(trifluoromethyl)pyridin-2-amine], the IC50 in assay [1] amounted to 3 nM; in assay [2], 3 nM; in assay [3], 1 nM.
For `CC(c1cccnc1N)N1c2nc(OC[C@@]34CCCN3C[C@H](F)C4)nc3c(F)c(-c4ccc(F)c5sc(N)c(C(N)=O)c45)nc(c23)OC[C@@H]1C` (stereo partly drawn) [Compound 327], the concentration for half-maximal inhibition (IC50) in assay [1], in assay [2] and in assay [3] was > 100 nM each time.
On to `CC(c1cccnc1N)N1c2nc(OC[C@@]34CCCN3C[C@H](F)C4)nc3c(F)c(-c4ccc(F)c5sc(N)c(C#N)c45)nc(c23)OC[C@@H]1C` (stereo partly drawn) [Compound 328], for which the IC50 in assay [1] is 0.8 nM; in assay [2], 0.8 nM; in assay [3], 0.5 nM.
As to `Cc1cc(N)nc(-c2nc3c4c(nc(OC[C@@]56CCCN5C[C@H](F)C6)nc4c2F)N(C(C)c2cccnc2N)[C@@H](C)CO3)c1` (stereo partly drawn) [Compound 329], the half-maximal inhibitory concentration (IC50) in assay [1], in assay [2] and in assay [3] was > 100 nM in each case.
As for `CC(c1cccnc1N)N1c2nc(OC[C@@]34CCCN3C[C@H](F)C4)nc3c(F)c(N4CC(O)Cc5ccccc54)nc(c23)OC[C@@H]1C` (stereo partly drawn) [Compound 331], the IC50 is > 100 nM in assay [1], > 100 nM in assay [2] and 38 nM in assay [3].
Turning to `CC(c1cccnc1N)N1c2nc(OC[C@@]34CCCN3C[C@H](F)C4)nc3c(F)c(-c4c(C5CC5)c(Cl)cc5[nH]ncc45)nc(c23)OC[C@@H]1C` (stereo partly drawn) [Compound 332], the IC50 in assay [1] turned out to be 0.3 nM; in assay [2] it was 0.9 nM; in assay [3] it was 0.4 nM.
The corresponding values for `CC(c1cccnc1N)N1c2nc(OC[C@@]34CCCN3C[C@H](F)C4)nc3c(F)c(-c4c(F)cc(F)c5sc(N)nc45)nc(c23)OC[C@@H]1C` (stereo partly drawn) [Compound 333] are 6 nM, 1 nM and 1 nM.
The corresponding values for `Cc1cc2[nH]ncc2c(-c2nc3c4c(nc(OC[C@@]56CCCN5C[C@H](F)C6)nc4c2F)N(C(C)c2cc(Cl)cnc2N)[C@@H](C)CO3)c1C(F)(F)F` (stereo partly drawn) [Compound 334, (*)5-Chloro-3-(1-((9S)-4-fluoro-2-(((2R,7aS)-2-fluorotetrahydro-1H-pyrrolizin-7a(5H)-yl)methoxy)-9-methyl-5-(6-methyl-5-(trifluoromethyl)-1H-indazol-4-yl)-8,9-dihydro-1OH-7-oxa-1,3,6,10-tetraazacyclohepta[de]naphthalen-10-yl)ethyl)pyridin-2-amine] are 0.6 nM, 0.5 nM and 0.3 nM.

In general, IC50 refers to the concentration needed to halve the response being measured.
